The values below come from the NIST ThermoML archive (doi:10.1021/je400980w).

A word on the vapor or sublimation pressure: it is the equilibrium pressure above the liquid or solid.

For this data set the following is noted: Liquid.

± gives the expanded uncertainty stated by the source.

In the case of `CCC(O)CO` (stereo unspecified) [1,2-butanediol], the “vapor or sublimation pressure” value reads like this: (420.46 K) 20 ± 2 kPa; (431.49 K) 30 ± 2 kPa; (439.8 K) 40 ± 2 kPa.
For `OCCO` [1,2-ethanediol], the “vapor or sublimation pressure” value amounted to 20 ± 2 kPa (420.74 K), 30 ± 2 kPa (432.29 K) and 40 ± 2 kPa (440.15 K).
